Here are results for 17 molecules from paper PMC13110330, “Design, Synthesis, and Evaluation of New Polyhydroxylated B is‐Chalcones as Potential COX‐2 Selective Inhibitors” (Chemmedchem, 2026).

Broadly, the inhibition is the change of the read-out against control, counted positive when it falls. Usually IC50 stands for the concentration that inhibits the measured activity by half.

One assay has as its target T1, human recombinant COX‐1 (Homo sapiens, UniProt P23219).
T1 construct: purchased Sigma Chemical Co. (St. Louis, MO, USA)
Kind of assay: In vitro fluorometric COX‐1 inhibitory assay. The format is biochemical. To be noted: mean ± SEM; for IC50: human recombinant enzyme. On the procedure: The COX‐1/2 inhibitory potential of bis‐chalcones was assessed with an in vitro fluorometric assay, based on the protocol outlined by Sigma‐Aldrich in their COX‐2 Inhibitor Screening Kit.
To conduct the assay, human recombinant COX‐1 or COX‐2 (2.5 ng/µL) was combined with diluted hemin (1 µM), COX cofactor, and ampliflu red (100 µM) in assay buffer (trizma hydrochloride pH = 8.0 and EDTA 0.1 µM).

The next assay deals with T2, human recombinant COX‐2 (Homo sapiens, UniProt P35354).
T2 construct: purchased Sigma Chemical Co. (St. Louis, MO, USA)
T2 sequence (P35354 18-604): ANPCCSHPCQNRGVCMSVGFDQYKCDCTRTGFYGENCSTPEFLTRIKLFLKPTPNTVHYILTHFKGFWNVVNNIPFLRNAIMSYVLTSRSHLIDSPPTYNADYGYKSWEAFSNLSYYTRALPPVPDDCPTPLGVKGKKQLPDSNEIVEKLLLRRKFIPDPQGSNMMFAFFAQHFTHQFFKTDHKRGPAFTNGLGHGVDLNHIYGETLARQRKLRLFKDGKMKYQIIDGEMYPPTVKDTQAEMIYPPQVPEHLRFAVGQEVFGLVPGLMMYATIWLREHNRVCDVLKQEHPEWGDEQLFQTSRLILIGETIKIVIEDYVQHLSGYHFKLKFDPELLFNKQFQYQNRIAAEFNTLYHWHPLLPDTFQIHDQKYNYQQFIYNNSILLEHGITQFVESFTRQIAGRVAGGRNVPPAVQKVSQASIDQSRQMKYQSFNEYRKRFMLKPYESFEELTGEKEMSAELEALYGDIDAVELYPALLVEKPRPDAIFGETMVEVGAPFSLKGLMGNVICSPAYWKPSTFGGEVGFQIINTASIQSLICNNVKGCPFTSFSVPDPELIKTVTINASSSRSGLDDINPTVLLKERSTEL
Kind of assay: In vitro fluorometric COX‐2 inhibitory assay and selectivity index. The settings on record: for IC50: human recombinant enzyme. Format: biochemical.

The test system of a further assay is COX‐2. Also on record: method as in PMID 824724. To be noted: measured in rabbit cell; cited from earlier work.
Where [1] appears, read: at 100 μM, highest tested concentration.
Where [2] appears, read: at 100 μM, highest tested concentration, mean ± SEM.
Where [3] appears, read: SI = % inhibition COX‐2 / % inhibition COX‐1 at 100 µM.

T1 sequence (P23219 24-599): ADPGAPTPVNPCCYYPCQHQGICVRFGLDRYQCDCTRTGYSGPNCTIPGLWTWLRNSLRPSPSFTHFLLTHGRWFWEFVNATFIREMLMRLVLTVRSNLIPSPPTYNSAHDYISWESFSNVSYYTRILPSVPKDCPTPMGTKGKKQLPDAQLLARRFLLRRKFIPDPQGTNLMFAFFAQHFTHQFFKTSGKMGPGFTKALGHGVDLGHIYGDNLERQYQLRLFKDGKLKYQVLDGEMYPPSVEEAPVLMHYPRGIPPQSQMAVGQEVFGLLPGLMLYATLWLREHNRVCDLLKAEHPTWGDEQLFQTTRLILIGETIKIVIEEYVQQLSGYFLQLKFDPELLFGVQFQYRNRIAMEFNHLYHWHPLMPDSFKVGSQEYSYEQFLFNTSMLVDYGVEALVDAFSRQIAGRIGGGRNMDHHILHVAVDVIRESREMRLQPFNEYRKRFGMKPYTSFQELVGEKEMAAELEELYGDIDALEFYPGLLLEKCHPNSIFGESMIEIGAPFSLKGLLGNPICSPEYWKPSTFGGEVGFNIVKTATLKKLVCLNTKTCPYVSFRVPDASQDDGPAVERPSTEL

Consider `COCOc1ccc(/C=C/C(=O)c2c(OCOC)cc(OCOC)c(C(=O)/C=C/c3ccc(OCOC)c(OC)c3)c2OCOC)cc1OC` [Compound 21, (2E,2′E)−1,1′‐[2,4,6‐Tris(methoxymethoxy)−1,3‐phenylene]bis{3‐[3‐methoxy‐4‐(methoxymethoxy)phenyl]prop‐2‐en‐1‐one}], for which the inhibition at 100 µM at human recombinant COX‐1 (setting [1]) and on human recombinant COX‐2 (setting [2]) was less than 30% in each case.
Take `COc1ccc(/C=C/C(=O)c2c(OC)cc(OC)c(C(=O)/C=C/c3ccc(OC)c(OC)c3)c2OC)cc1OC` [Compound 10, (2E,2′E)−1,1′‐(2,4,6‐Trimethoxy‐1,3‐phenylene)bis[3‐(3,4‐dimethoxyphenyl)prop‐2‐en‐1‐one]]: the inhibition at 100 µM at human recombinant COX‐1 (setting [1]) and on human recombinant COX‐2 (setting [2]) was less than 30% each time.
Turning to `COCOc1cc(OCOC)c(C(=O)/C=C/c2ccc(Br)cc2)c(OCOC)c1C(=O)/C=C/c1ccc(Br)cc1` [Compound 22, (2E,2′E)−1,1′‐[2,4,6‐Tris(methoxymethoxy)−1,3‐phenylene]bis(3‐(4‐bromophenyl)prop‐2‐en‐1‐one)], the inhibition at 100 µM on human recombinant COX‐1 (setting [1]) and at human recombinant COX‐2 (setting [2]) was less than 30% in each case.
Consider `COc1cc(OC)c(C(=O)/C=C/c2ccc(Br)cc2)c(OC)c1C(=O)/C=C/c1ccc(Br)cc1` [Compound 14, (2E,2′E)−1,1′‐(2,4,6‐Trimethoxy‐1,3‐phenylene)bis[3‐(4‐bromophenyl)prop‐2‐en‐1‐one]], for which the inhibition at 100 µM on human recombinant COX‐1 (setting [1]) and on human recombinant COX‐2 (setting [2]) was less than 30% each time.
As to `COc1ccc(/C=C/C(=O)c2c(OC)cc(OC)c(C(=O)/C=C/c3ccc(OC)cc3)c2OC)cc1` [Compound 11, (2E,2′E)−1,1′‐(2,4,6‐Trimethoxy‐1,3‐phenylene)bis[3‐(4‐methoxyphenyl)prop‐2‐en‐1‐one]], the inhibition at 100 µM at human recombinant COX‐1 (setting [1]) and on human recombinant COX‐2 (setting [2]) was less than 30% each time.
Take `COc1ccc(/C=C/C(=O)c2c(O)cc(O)c(C(=O)/C=C/c3ccc(OC)c(OC)c3)c2O)cc1OC` [Compound 26, (2E,2′E)−1,1′‐(2,4,6‐Trihydroxy‐1,3‐phenylene)bis[3‐(3,4‐dimethoxyphenyl)prop‐2‐en‐1‐one]]: the inhibition at 100 µM on human recombinant COX‐1 (setting [1]) and at human recombinant COX‐2 (setting [2]) was 40 to 50% in each case. Also, at human recombinant COX‐2 (setting [3]), the “Selectivity index (SI)” value is 0.8.
`COCOc1ccc(/C=C/C(=O)c2c(OCOC)cc(OCOC)c(C(=O)/C=C/c3ccc(OCOC)cc3)c2OCOC)cc1` [Compound 25, (2E,2′E)−1,1′‐[2,4,6‐Tris(methoxymethoxy)−1,3‐phenylene]bis{3‐[4‐(methoxymethoxy)phenyl]prop‐2‐en‐1‐one}]: the inhibition at 100 µM on human recombinant COX‐1 (setting [1]) and on human recombinant COX‐2 (setting [2]) was less than 30% in each case.
Take `COc1cc(OC)c(C(=O)/C=C/c2cccc(Cl)c2)c(OC)c1C(=O)/C=C/c1cccc(Cl)c1` [Compound 15, (2E,2′E)−1,1′‐(2,4,6‐Trimethoxy‐1,3‐phenylene)bis[3‐(3‐chlorophenyl)prop‐2‐en‐1‐one]]: the inhibition at 100 µM at human recombinant COX‐1 (setting [1]) and on human recombinant COX‐2 (setting [2]) was less than 30% throughout.
For `COc1cc(/C=C/C(=O)c2c(OC)cc(OC)c(C(=O)/C=C/c3ccc(O)c(OC)c3)c2OC)ccc1O` [Compound 13, (2E,2′E)−1,1′‐(2,4,6‐Trimethoxy‐1,3‐phenylene)bis[3‐(4‐hydroxy‐3‐methoxyphenyl)prop‐2‐en‐1‐one]], the IC50 on human recombinant COX‐1 was found to be 24 ± 3 µM; on human recombinant COX‐2 (mean ± SEM), 5.5 ± 0.7 µM. Moreover, the “Selectivity index (SI)” value at human recombinant COX‐2 (SI = IC50 COX‐1 / IC50 COX‐2) worked out at 4.4.
Take `COc1cc(/C=C/C(=O)c2c(O)cc(O)c(C(=O)/C=C/c3ccc(O)c(OC)c3)c2O)ccc1O` [Compound 28, (2E,2′E)−1,1′‐(2,4,6‐Trihydroxy‐1,3‐phenylene)bis[3‐(4‐hydroxy‐3‐methoxyphenyl)prop‐2‐en‐1‐one]]: the IC50 came out at 37 ± 4 µM on human recombinant COX‐1 and 14.6 ± 0.5 µM at human recombinant COX‐2 (mean ± SEM). The “Selectivity index (SI)” value at human recombinant COX‐2 (SI = IC50 COX‐1 / IC50 COX‐2) was determined as 2.6.
`COCOc1cc(OCOC)c(C(=O)/C=C/c2ccc(OC)c(OC)c2)c(OCOC)c1C(=O)/C=C/c1ccc(OC)c(OC)c1` [Compound 19, (2E,2′E)−1,1′‐[2,4,6‐Tris(methoxymethoxy)−1,3‐phenylene]bis[3‐(3,4‐dimethoxyphenyl)prop‐2‐en‐1‐one]]: the inhibition at 100 µM at human recombinant COX‐1 (setting [1]) and at human recombinant COX‐2 (setting [2]) was less than 30% each time.
In the case of `COc1ccc(/C=C/C(=O)c2c(O)cc(O)c(C(=O)/C=C/c3ccc(OC)cc3)c2O)cc1` [Compound 27, (2E,2′E)−1,1′‐(2,4,6‐Trihydroxy‐1,3‐phenylene)bis[3‐(4‐methoxyphenyl)prop‐2‐en‐1‐one]], the IC50 turned out to be 48 ± 2 µM on human recombinant COX‐1 and 44 ± 3 µM on human recombinant COX‐2 (mean ± SEM). Also, on human recombinant COX‐2 (SI = IC50 COX‐1 / IC50 COX‐2), the “Selectivity index (SI)” value was 1.2.
With `COc1cc(OC)c(C(=O)/C=C/c2ccc(O)cc2)c(OC)c1C(=O)/C=C/c1ccc(O)cc1` [Compound 12, (2E,2′E)−1,1′‐(2,4,6‐Trimethoxy‐1,3‐phenylene)bis[3‐(4‐hydroxyphenyl)prop‐2‐en‐1‐one]], the inhibition at 100 µM on human recombinant COX‐1 (setting [1]) and at human recombinant COX‐2 (setting [2]) was approximately 50% in each case. Further, the “Selectivity index (SI)” value at human recombinant COX‐2 (setting [3]) was 0.9.
`O=C(/C=C/c1ccc(Br)cc1)c1c(O)cc(O)c(C(=O)/C=C/c2ccc(Br)cc2)c1O` [Compound 29, (2E,2′E)−1,1′‐(2,4,6‐Trihydroxy‐1,3‐phenylene)bis[3‐(4‐bromophenyl)prop‐2‐en‐1‐one]]: the inhibition at 100 µM at human recombinant COX‐1 (setting [1]) and at human recombinant COX‐2 (setting [2]) was 40 to 50% each time. Besides, at human recombinant COX‐2 (setting [3]), the “Selectivity index (SI)” value was 1.1. Moreover, at human recombinant COX‐2 (cell carries superscript 100 μM (highest tested concentration)), the “COX‐2 IC50, µM or Inhibition, %” value amounted to 58 ± 3 µM ^100 μM.
Turning to `COCOc1cc(OCOC)c(C(=O)/C=C/c2ccc(OC)cc2)c(OCOC)c1C(=O)/C=C/c1ccc(OC)cc1` [Compound 20, (2E,2′E)−1,1′‐[2,4,6‐Tris(methoxymethoxy)−1,3‐phenylene]bis[3‐(4‐methoxyphenyl)prop‐2‐en‐1‐one]], the inhibition at 100 µM at human recombinant COX‐1 (setting [1]) and at human recombinant COX‐2 (setting [2]) was less than 30% throughout.
Turning to “(2E,2′E)−1,1′‐{2,4,6‐Tris[(2‐methoxyethoxy)methoxy]−1,3‐phenylene}bis(3‐{3,4‐bis[(2‐methoxyethoxy)methoxy]phenyl}prop‐2‐en‐1‐one) [Compound 24]”, the “COX‐1 Inhibition, %” value at human recombinant COX‐1 (setting [1]) was less than 30% ^100 μM. In addition, on human recombinant COX‐2 (setting [2]), the “COX‐2 Inhibition, %” value is less than 30% ^100 μM.
On to `Cc1c(Cl)cccc1Nc1ccccc1C(=O)O` [tolfenamic acid], for which, in the assay with COX‐2, the half-inhibitory concentration (IC50) is 0.64 µM.
